Converted amounts (≈) assume the structure as drawn. “And” between values parts separate entries of the source, which are not always exact repeats. Equal values may be shown once. Where a SMILES comes first, the peptide text is derived from it. The star is where a group is joined. Myristoyl = CCCCCCCCCCCCCC(=O)*; Lauroyl = CCCCCCCCCCCC(=O)*; Decanoyl = CCCCCCCCCC(=O)*; Octanoyl = CCCCCCCC(=O)*
What was measured:
[1] = Lipopeptide hydrophobicity by RP-HPLC (adjusted retention time); format: physicochemical; settings: RP-HPLC, 20–65% acetonitrile over 30 min, indicator of hydrophobicity
Description: (§1) The identity of the purified peptides was confirmed with electrospray ionization mass spectrometry (ESI-MS) in positive ion mode. Results of MS analyses and net charge are attached in Supplementary Materials (Table S1). Peptides’ hydrophobicity was evaluated by analytical reversed-phase high-performance liquid chromatography (RP-HPLC). The critical aggregation concentrations (CACs) of the lipopeptides were determined in unbuffered aqueous solution at 298 K by measuring the surface tension as a function of lipopeptide concentration. The measurements were carried out by the Du Noüy ring method on a K100 tensiometer. The surface tension data were plotted against the logarithm of lipopeptide concentration. CAC was found as the intersection of two lines being linear regression of data below and above CAC.
Lipopeptide hydrophobicity was determined as described previously. To do this, a Waters Alliance e2695 system with a Waters 2998 PDA Detector (software-Empower 3, Waters, Milford, MA, USA) was used. All analyses were carried out on a Waters X-Bridge Shield RP-18 column (3.0 × 100 mm, 3.5 μm particle size, 130 Å pore size). The Shield Technology column with embedded polar groups was used to minimize interactions of unreacted silanol groups with basic lipopeptides. The peptides were dissolved in water (0.1% TFA, v/v) up to a concentration of 1 mg/mL. UV detection at 214 nm was used, and samples (10 μL) were eluted with a linear 20–65% acetonitrile gradient in deionized water over 30 min at 25.0 ± 0.1 °C. The mobile phase flow rate was 0.5 mL/min. Both eluents contained 0.1% (v/v) of TFA. Each peptide sample was analyzed in triplicate. The maximum standard deviation and coefficient of variation were 0.044 and 0.85%, respectively.

HaCaT cells = format: cell-based, human; settings: 24 h
Description: Cells were trypsinized, and the medium was renewed 2–3 times per week. The cytotoxicity of compounds was assessed by the determination of cell metabolic activity by colorimetric CellTilter 96® Aqueous One Solution Cell Proliferation Assay (Promega, Madison, WI, USA), according to the manufacturer’s instructions. […] Every compound was medium-soluble in 37 °C; thus, the control cells were cultured with the medium. Serial dilutions of the tested compounds were always prepared prior to use. Cells were incubated with drugs for 24 h, and then, 20 μL of the CellTiter 96®AqueousOne Solution Reagent was added to each well containing cells maintained in 100 μL of culture medium.

[2] = tested on: Acinetobacter baumannii ATCC BAA 1605; format: cell-based; settings: ATCC BAA 1605, 24 h
Description: (§2) Biofilm is associated with life-threating infections due to its outstanding resistance to antibiotics. In this study, the antibiofilm characteristics of USCLs and gemini surfactants were evaluated.
(§3) The MBECs were determined as described previously using 96-well polystyrene flat-bottom plates. For this purpose, 24 h cultures of microorganisms were diluted to obtain a final density of 5.0 × 10^5 CFU/mL and 2.0 × 10^5 CFU/mL of bacteria and fungi, respectively. Microorganisms were diluted in MHB or RPMI-1640 with 2% D-glucose (bacteria and fungi, respectively). Briefly, 100 µL of cell suspension was added into the test plates. After 24 h of incubation at 37 °C, the wells were rinsed three times with a PBS (pH 7.4) to remove non-adherent cells. Subsequently, 100 μL of the test compounds in a concentration range (1–512 μg/mL) were added to each well. After 24 h of incubation at 37 °C, 20 μL of a cell viability reagent was added (resazurin, 4 g/L; Sigma Aldrich, St. Louis, MO, USA). The MBEC was read after 1 h. The determined values were recorded as the lowest concentration at which the reduction of resazurin (from blue to pink) was lower or equal to 10 ± 0.5% as compared to the positive (100%) and negative (0%) controls. The reduction was monitored by measuring absorbance at 570 nm (reduced) and 600 nm (oxidized) using a microplate spectrophotometer (Multiskan GO Microplate Spectrophotometer, Thermo Fisher Scientific, Vantaa, Finland). All experiments were conducted in triplicate.

[3] = tested on: Candida albicans ATCC 10231; format: cell-based; settings: ATCC 10231, 24 h
Description: as §2, §3

[4] = tested on: Candida glabrata ATCC 15126; format: cell-based; settings: ATCC 15126, 24 h
Description: as §2, §3

[5] = tested on: Enterococcus faecium ATCC 700221; format: cell-based; settings: ATCC 700221, 24 h
Description: as §2, §3

[6] = tested on: Klebsiella aerogenes ATCC 13048; format: cell-based; settings: ATCC 13048, 24 h
Description: as §2, §3

[7] = tested on: Klebsiella pneumoniae ATCC 700603; format: cell-based; settings: ATCC 700603, 24 h
Description: as §2, §3

[8] = tested on: Pseudomonas aeruginosa ATCC 9027; format: cell-based; settings: ATCC 9027, 24 h
Description: as §2, §3

[9] = tested on: Staphylococcus aureus ATCC 25923; format: cell-based; settings: ATCC 25923, 24 h
Description: as §2, §3

[10] = tested on: Staphylococcus aureus ATCC 33591; format: cell-based; settings: ATCC 33591, 24 h
Description: as §2, §3

[11] = Critical aggregation concentration by surface tension (Du Noüy ring, K100 tensiometer); format: physicochemical; settings: unbuffered aqueous solution, 298 K
Description: as §1
The critical aggregation concentration (CAC) values were determined fully automatically using a K100 tensiometer (KRUSS, Hamburg, Germany) equipped with two micro dosimeters by measuring the surface tension vs. lipopeptide concentration. The measurements were performed in unbuffered aqueous solution at 298 K using the Du Noüy ring method. The accuracy of the surface tension measurements was 0.1 mN/m. The critical aggregation concentration (CAC) was defined as the intersection of two lines fitted to the experimental data collected before and after the inflection point.

Adjusted Retention Time [1] [min]	Compound	IC50 (HaCaT cells) [µg/mL]	MBEC Acinetobacter baumannii ATCC BAA 1605 [2] [µg/mL]	MBEC Candida albicans ATCC 10231 [3] [µg/mL]	MBEC Candida glabrata ATCC 15126 [4] [µg/mL]	MBEC Enterococcus faecium ATCC 700221 [5] [µg/mL]	MBEC Klebsiella aerogenes ATCC 13048 [6] [µg/mL]	MBEC Klebsiella pneumoniae ATCC 700603 [7] [µg/mL]	MBEC Pseudomonas aeruginosa ATCC 9027 [8] [µg/mL]	MBEC Staphylococcus aureus ATCC 25923 [9] [µg/mL]	MBEC Staphylococcus aureus ATCC 33591 [10] [µg/mL]	CAC [11]	Surface Tension at CAC [11] [mN/m]
2.93	CCCCCCCC(=O)N[C@@H](CCCNC(=N)N)C(=O)N[C@@H](CCCNC(=N)N)C(N)=O [Compound A1, C8-RR-NH2] (Octanoyl-Arg-Arg-NH2)	>500	>512	>512	>512	>512	>512	>512	>512	>512	>512		
7.74	CCCCCCCCCC(=O)N[C@@H](CCCNC(=N)N)C(=O)N[C@@H](CCCNC(=N)N)C(N)=O [Compound A2, C10-RR-NH2] (Decanoyl-Arg-Arg-NH2)	>500	>512	512	>512	512	>512	>512	>512	512	512		
12.15	CCCCCCCCCCCC(=O)N[C@@H](CCCNC(=N)N)C(=O)N[C@@H](CCCNC(=N)N)C(N)=O [Compound A3, C12-RR-NH2] (Lauroyl-Arg-Arg-NH2)	153.50 ± 8.13 (≈ 300 µM)	512	128	512	32	512	512	512	64	64	7.48 mM and 3827.3 μg/mL	38

Compound	Adjusted Retention Time [1] [min]	IC50 (HaCaT cells) [µg/mL]	MBEC Acinetobacter baumannii ATCC BAA 1605 [2] [µg/mL]	MBEC Candida albicans ATCC 10231 [3] [µg/mL]	MBEC Candida glabrata ATCC 15126 [4] [µg/mL]	MBEC Enterococcus faecium ATCC 700221 [5] [µg/mL]	MBEC Klebsiella aerogenes ATCC 13048 [6] [µg/mL]	MBEC Klebsiella pneumoniae ATCC 700603 [7] [µg/mL]	MBEC Pseudomonas aeruginosa ATCC 9027 [8] [µg/mL]	MBEC Staphylococcus aureus ATCC 25923 [9] [µg/mL]	MBEC Staphylococcus aureus ATCC 33591 [10] [µg/mL]	CAC [11]	Surface Tension at CAC [11] [mN/m]
CCCCCCCCCCCCCC(=O)N[C@@H](CCCNC(=N)N)C(=O)N[C@@H](CCCNC(=N)N)C(N)=O [Compound A4, C14-RR-NH2] (Myristoyl-Arg-Arg-NH2)	16.31	46.48 ± 3.65 (≈ 86.1 µM)	256	64	256	8	256	256	512	16	8	1.67 mM and 899.7 μg/mL	35

— paper PMC8036666, “Biological and Physico-Chemical Characteristics of Arginine-Rich Peptide Gemini Surfactants with Lysine and Cystine Spacers” (International Journal of Molecular Sciences, 2021)
